Tested on: dopaminergic neurons
Experiment: MPTP Model of Parkinson's Disease in Mice
Assay type: in vivo
Settings: recovery of TH-stained dopaminergic neurons in striatum; MPTP 30 mg/kg i.p. 5 days; test compound 4 mg/kg s.c., concurrent dosing paradigm
Protocol: MPTP lesioning of dopaminergic neurons in mice is used as an animal model of Parkinson's Disease. Four week old male CD1 white mice are dosed i.p. with 30 mg/kg of MPTP for 5 days. Test compounds (4 mg/kg), or vehicle, are administered s.c. along with the MPTP for 5 days, as well as for an additional […] following cessation of MPTP treatment. At 18 days following MPTP treatment, the animals are sacrificed and the striata dissected and perfusion-fixed. Immunostaining is performed on saggital and coronal brain sections using anti-tyrosine hydroxylase […] to quantitate survival and recovery of dopaminergic neurons. In animals treated with MPTP and vehicle, a substantial loss of functional dopaminergic terminals is observed as compared to non-lesioned animals. Lesioned animals receiving test compounds show a significant recovery of TH-stained dopaminergic neurons. This model presents quantitation for the recovery of TH-positive dopaminergic neurons in the striatum of animals receiving the compounds of the present invention. […]
Percent striatal innervation density was quantitated in brain sections with an anti-tyrosine hydroxylase immunoglobulin, which is indicative of functional dopaminergic neurons. […]

Q: CCC(C)(C)C(=O)C(=O)N1CCS[C@H]1C(=O)O [Compound L, (2S) -1-(3,3-dimethyl-1,2-dioxopentyl) -3-thiazolidine-2-carboxylic acid] was tested. Which “% Recovery” value did it give?
A: 14.0%

From patent US20020045641A1, “Multiple heteroatom containing heterocyclic ring compounds substituted with carboxylic acids and isosteres thereof” (priority 1998, published 2002)
